Consider 1 compound from patent publication US6632829B2, “Sulfonamides and derivatives thereof that modulate the activity of endothelin” (Texas Biotechnology Corp., priority 1996, dated 2003).

The subject of experiment [1] is hypertensive rat model. Nature of the experiment: Deoxycorticosterone acetate (DOCA)-salt hypertensive rat model. Format: in vivo. On the procedure:
Selected compounds disclosed herein have been tested for activity in the deoxycorticosterone acetate (DOCA)-salt hypertensive rat model. To perform these tests, silastic MDX4-4210 elastomer implants containing 47 mg (DOCA) were prepared according to the method of Ornmsbee et al. ((1973) the J. Pharm. Sci. 62:255-257). Briefly, DOCA is incorporated into silicon rubber implants for sustained release. To prepare the implants the DOCA is incorporated into unpolymerized silicone rubber, catalyst is added and the mixture is cast in a hemicylindrical shape.
Sprague Dawley rats (7-8 weeks old) were unilaterally nephrectomized under ketamine anesthesia and a DOCA-implant was placed on the left lateral dorsal abdomen of the animal. The rats were allowed to recover for three weeks. During recovery they were permitted free access to normal rat chow and 0.9% NaCl drinking solution in place of drinking water. The rats develop hypertension within 3 weeks. […]
On the day of experimentation, catheters were inserted under brevital anesthesia into the right femoral artery for measurement of blood pressure, and into the right femoral vein for administration of a selected compound. The animals were placed in a restrainer and allowed to recover for a minimum of 60 min or until a steady mean arterial blood pressure was recorded. […] Blood pressure was recorded continuously for a further 10 hrs.

For experiment [2], the target named is T1, human ETB receptor (Homo sapiens, UniProt P24530).
T1 construct: expressed in transfected cells; host or cells: COS7 cells
T1 sequence (P24530 27-442): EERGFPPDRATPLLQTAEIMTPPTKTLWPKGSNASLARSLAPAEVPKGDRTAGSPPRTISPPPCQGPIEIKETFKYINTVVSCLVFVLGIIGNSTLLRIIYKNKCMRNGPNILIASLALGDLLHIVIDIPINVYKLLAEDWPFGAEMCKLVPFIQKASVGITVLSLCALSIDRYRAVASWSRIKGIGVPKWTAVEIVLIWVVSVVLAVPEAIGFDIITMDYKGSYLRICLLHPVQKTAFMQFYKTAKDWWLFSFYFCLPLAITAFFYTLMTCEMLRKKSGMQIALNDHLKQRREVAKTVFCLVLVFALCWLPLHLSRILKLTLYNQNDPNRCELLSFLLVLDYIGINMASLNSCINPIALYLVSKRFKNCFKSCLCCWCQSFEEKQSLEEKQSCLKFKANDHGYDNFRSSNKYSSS
Description: Endothelin binding inhibition, Binding Test #2: competition with 125I-ET-1 for ETB receptors on transfected COS7 cell membranes. Conditions: incubation at 24° C. (values marked †). Summed up:
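Membranes from COS7 cells transfected with human ETB receptor, prepared in HEPES pH 7.4 with aprotinin, MnCl2/DNase treatment at 37° C for 30 min. Test compounds compete with 125I-labeled ET-1 for receptor binding; membrane used at 1 μg/50 μL binding buffer.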

In the case of `Cc1cc(C)c(NC(=O)c2sccc2S(=O)(=O)Nc2onc(C)c2Cl)c(C)c1O` [N-(4-chloro-3-methyl-5-isoxazolyl)-2-(3-hydroxy-2,4,6-trimethylphenylaminocarbonyl)thiophene-3-sulfonamide], in experiment [1], the “decrease of blood pressure” value is on record as “effective in decreasing blood pressure”. For the same compound, the IC50 – broadly, the concentration that inhibits the measured activity by half – in experiment [2] was determined as 18.7 µM.
